Common to all, as to assay: NCI-60 cell line screen, 48 h
For assay [1], the system named is UACC-257 melanoma.
The test system of assay [2] is NCI-H522 lung.
Assay [3] relates to UO-31 renal.
Assay [4] deals with SR leukemia.
In assay [5] the test system is HS 578T breast.
Assay [6] has as its system LOX IMVI melanoma.
Assay [7] deals with HCC-2998 colon.
For assay [8], the system named is OVCAR-8 ovarian.
In assay [9] the test system is ACHN renal.
Assay [10] deals with MCF7 breast.
For assay [11], the system named is SF-539 CNS.
The test system of assay [12] is KM12 colon.
For assay [13], the system named is SNB-19 CNS.
Assay [14] relates to T-47D breast.
Assay [15] concerns SK-OV-3 ovarian.
Assay [16] deals with A498 renal.
Assay [17] deals with SF-295 CNS.
For assay [18], the system named is CCRF-CEM leukemia.
Assay [19] relates to MALME-3M melanoma.

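Tested at 5 concentrations; 48 h exposure; 96-well plates; endpoints linearly interpolated, else capped at highest concentration. TGI: concentration producing complete growth inhibition.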 Bounds are passed on as bounds.

As for `COC(=O)C(/C(=N/N)C(=O)Nc1cccc(O)c1)c1nc2ccccc2[nH]c1=O` (centres undefined), the TGI in assay [1], in [2], in assay [3], in [4], in assay [5] and in assay [6] was greater than 100 µM each time. Moreover, the TGI in assay [7], in assay [8], in assay [9], in assay [10], in assay [11] and in [12] was greater than 100 µM each time. Further, the TGI in assay [13], in [14], in [15], in assay [16] and in [17] was greater than 100 µM throughout.
Regarding `COC(=O)c1ccc(/C=C2\Oc3cc(O)ccc3C2=O)cc1`, the TGI in [1], in [2], in assay [3], in [4], in [5] and in assay [7] was greater than 100 µM throughout. Besides, the TGI in assay [8], in assay [9], in [18], in [10], in assay [11] and in [12] was greater than 100 µM in each case. For the same molecule, the TGI in [13], in [14], in assay [15] and in [17] was greater than 100 µM in each case.
Regarding `CNN1C(=O)c2c(C)c(C)c(C#N)c(N)c2C1=O`, the TGI in assay [1], in [2], in assay [3], in assay [4], in assay [5] and in assay [6] was greater than 100 µM each time. In addition, the TGI in assay [7], in [8], in [9], in assay [18], in [10] and in assay [11] was greater than 100 µM each time. In addition, the TGI in assay [12], in assay [13], in assay [14], in assay [17] and in assay [19] was greater than 100 µM throughout.
For `CCOC(=O)C(NC(=O)c1ccccc1)(Nc1ccc(S(=O)(=O)Nc2cc(C)nc(C)n2)cc1)C(F)(F)F` (centres undefined), the TGI in [1], in [2], in assay [3], in assay [4], in [5] and in assay [6] was greater than 100 µM throughout. The TGI in [8], in assay [9], in assay [18], in assay [10], in assay [11] and in assay [12] was greater than 100 µM throughout. Besides, the TGI in assay [13], in [14], in assay [16], in assay [17] and in [19] was greater than 100 µM each time.
For `O=C(c1ccccc1)N1CCC(Nc2nccs2)O1` (centres undefined), the TGI in assay [1], in assay [2], in [3], in assay [4], in assay [5] and in assay [6] was greater than 10 µM each time. Moreover, the TGI in assay [7], in [8], in assay [9], in [18], in [10] and in [11] was greater than 10 µM each time. Further, the TGI in assay [13], in assay [14], in [15], in [17] and in [19] was greater than 10 µM each time.
For `CC(=O)N(CCCCNC(=O)C(F)(F)F)CCCNC(=O)C(F)(F)F`, the TGI in [1], in assay [2], in assay [3], in assay [4], in assay [5] and in assay [7] was greater than 100 µM in each case. Moreover, the TGI in [8], in [9], in assay [18], in [10], in [11] and in [12] was greater than 100 µM throughout. Besides, the TGI in assay [13], in assay [14], in [15], in assay [16] and in assay [17] was greater than 100 µM in each case.
For `Cc1ccc(S(=O)(=O)N/N=C2\CC(C)OC3=C2CCCCCC3)cc1` (centres undefined), the TGI in [1] amounted to 36.6 µM; in assay [3], 31.2 µM; in [4] it was 60.4 µM; in [5], 47 µM; in assay [6], 33.7 µM; in assay [8], 45.2 µM. Also, the TGI in assay [9] was 32.8 µM; in assay [18], greater than 100 µM; in assay [10], 38.2 µM; in [11], 38.9 µM; in assay [12], 37.4 µM; in [13], 44.1 µM. The TGI in assay [14] was greater than 100 µM; in assay [15], 62.8 µM; in [16], 29.7 µM; in [17], 35.9 µM; in assay [19] it was 39.5 µM.
Take `O=c1c2cc(S(=O)(=O)O)ccc2nc(COc2ccc(Oc3ccc(Cl)cc3Cl)cc2)n1C(=S)Nc1ccc(Cl)cc1`: the TGI is 60.5 µM in [1]; 39.8 µM in [2]; 29.7 µM in assay [3]; 22.9 µM in assay [4]; 44.8 µM in assay [5]; 32 µM in assay [6]. The TGI is 55.3 µM in [8]; 64.7 µM in assay [9]; greater than 100 µM in assay [18]; 38.3 µM in assay [10]; 31.9 µM in assay [11]; 71.4 µM in assay [12]. The TGI in assay [13] was greater than 100 µM; in assay [14], greater than 100 µM; in assay [15] it was 49 µM; in [16], 52.5 µM; in assay [17] it was 39.6 µM; in assay [19], 49 µM.
On to `O=C(NNC(=O)c1ccccc1O)c1ccco1`, for which the TGI in [1], in assay [2], in assay [3], in assay [4], in assay [5] and in [6] was greater than 100 µM throughout. Also, the TGI in assay [8], in assay [18], in assay [10], in assay [11], in assay [12] and in assay [13] was greater than 100 µM in each case. Further, the TGI in assay [14], in assay [15], in [16], in [17] and in assay [19] was greater than 100 µM in each case.
For the molecule `C=C1CC(C)(COc2ccc3c(C)cc(=O)oc3c2)OC1=O` (centres undefined), the TGI worked out at 4.35 µM in assay [1]; 0.491 µM in assay [2]; 18.9 µM in assay [3]; 4.33 µM in [4]; 31.9 µM in assay [5]; 5.11 µM in [6]. Also, the TGI stood at 9.5 µM in assay [7]; 14.8 µM in assay [8]; 7.37 µM in [9]; 2.46 µM in assay [18]; 2.39 µM in [10]; 4.59 µM in [11]. Moreover, the TGI came out at 17.4 µM in assay [12]; 28.4 µM in assay [13]; 3.8 µM in assay [14]; 15.1 µM in [15]; 16.3 µM in assay [17]; 6.75 µM in [19].
Consider `N=c1oc2ccc(Cl)cc2cc1C(N)=O`, for which the TGI is greater than 100 µM in assay [1]; greater than 100 µM in assay [4]; 63.9 µM in assay [5]; greater than 100 µM in assay [6]; 47.4 µM in [7]; greater than 100 µM in assay [8]. The TGI in assay [9] was greater than 100 µM; in assay [18], greater than 100 µM; in [11], greater than 100 µM; in assay [12] it was 88.4 µM; in [13] it was greater than 100 µM; in [14], 94.6 µM. The TGI in [15] is greater than 100 µM; in [16], greater than 100 µM; in assay [19] it was 37.1 µM.
Consider `O=C(O)c1nc2ccccc2nc1NCc1ccc(F)cc1`, for which the TGI in [1], in [2], in assay [3], in assay [4], in assay [5] and in assay [6] was greater than 100 µM in each case. Further, the TGI in assay [7], in assay [8], in assay [18], in assay [10], in assay [11] and in assay [12] was greater than 100 µM throughout. The TGI in [13], in assay [14], in [16] and in assay [17] was greater than 100 µM throughout.
`COc1ccc(/C=C2\CCc3cc(OC)c(OC)cc3C2=O)cc1`: the TGI in assay [1], in assay [3], in [4], in assay [5], in [6] and in assay [7] was greater than 10 µM throughout. In addition, the TGI in assay [8], in [9], in [18], in assay [10], in assay [11] and in assay [12] was greater than 10 µM each time. The TGI in assay [13], in [14], in assay [15], in assay [17] and in [19] was greater than 10 µM in each case.
With `N#CCC1(c2ccc(Cl)cc2)NC(=O)c2ccccc21` (centres undefined), the TGI in assay [1], in assay [2], in assay [3], in assay [4], in assay [5] and in assay [6] was greater than 100 µM in each case. Moreover, the TGI in [8], in assay [9], in [18], in assay [10], in [11] and in [12] was greater than 100 µM throughout. The TGI in assay [13], in [14], in assay [15], in assay [16], in [17] and in assay [19] was greater than 100 µM in each case.
Turning to `O=C1OCCC[C@H]2O[C@@H](COCc3ccccc3)C[C@@H]12`, the TGI in [1], in assay [3], in assay [4], in assay [5], in assay [8] and in assay [9] was greater than 100 µM in each case. For the same molecule, the TGI in assay [18], in [10], in assay [11], in assay [12], in assay [13] and in assay [14] was greater than 100 µM throughout. The TGI in [15], in assay [16] and in [17] was greater than 100 µM throughout.
`O=c1oc2c/c(=C\c3ccccn3)c(=O)c3cccc1c3-2`: the TGI in assay [1], in assay [2], in [4], in assay [5], in [6] and in assay [7] was greater than 100 µM throughout. The TGI is 54.4 µM in assay [8]; greater than 100 µM in [9]; greater than 100 µM in assay [18]; greater than 100 µM in [10]; 57.4 µM in assay [11]; greater than 100 µM in assay [12]. Besides, the TGI in assay [13], in assay [14], in assay [15], in assay [17] and in assay [19] was greater than 100 µM each time.

The values are drawn from PubChem BioAssay (NCI).
